{"source": "patent US12077503B2", "about": "“Substituted cyclic amides and their use as herbicides” (FMC CORPORATION, priority 2015, dated 2024)", "type_in_all_cases": "in vivo", "key": {"[1]": {"test_system": "ryegrass, Italian (Italian ryegrass, Lolium multiflorum)", "assay": "Test A preemergence", "excerpt": "(§1) Seeds of plant species selected from barnyardgrass (Echinochloa crus-galli), Kochia (Kochia scoparia), ragweed (common ragweed, Ambrosia elatior), ryegrass, Italian (Italian ryegrass, Lolium multiflorum), crabgrass, large (Digitaria sanguinalis), giant foxtail (Setaria faberii), green foxtail (Setaria viridis), morningglory (Ipomoea spp.), pigweed (Amaranthus retroflexus), velvetleaf (Abutilon theophrasti), wheat (Triticum aestivum), and corn (Zea mays) were planted into a blend of loam soil and sand and treated preemergence with a directed soil spray using test chemicals formulated in anon-phytotoxic solvent mixture which included a surfactant.\n(§2) At the same time, plants selected from these crop and weed species and also blackgrass (Alopecurus myosuroides), and Galium (catchweed bedstraw, Galium aparine) were planted in pots containing the same blend of loam soil and sand and treated with postemergence applications of test chemicals formulated in the same manner. Plants ranged in height from 2 to 10 cm and were in the one- to two-leaf stage for the postemergence treatment. Treated plants and untreated controls were maintained in a greenhouse for approximately 10 d, after which time all treated plants were compared to untreated controls and visually evaluated for injury. Plant response ratings, summarized in Table A, are based on a 0 to 100 scale where 0 is no effect and 100 is complete control. A dash (-) response means no test result."}, "Kochia (Kochia scoparia) [2]": {"test_system": "Kochia (Kochia scoparia)", "assay": "Test A preemergence", "excerpt": "as §1, §2"}, "[3]": {"test_system": "barnyardgrass (Echinochloa crus-galli)", "assay": "Test A preemergence", "excerpt": "as §1, §2"}, "[4]": {"test_system": "giant foxtail (Setaria faberii)", "assay": "Test A preemergence", "excerpt": "as §1, §2"}, "[5]": {"test_system": "pigweed (Amaranthus retroflexus)", "assay": "Test A preemergence", "excerpt": "as §1, §2"}, "[6]": {"test_system": "ragweed (common ragweed, Ambrosia elatior)", "assay": "Test A preemergence", "excerpt": "as §1, §2"}, "[7]": {"test_system": "ducksalad (Heteranthera limosa)", "assay": "Test B flooded paddy test", "settings": "Flood, 250 g ai/ha; 0 to 100 scale where 0 is no effect and 100 is complete control; 13 to 15 d", "method_in_brief": "(§3)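 Visual ratings (0 none to 100 complete control) are relative to untreated plants, taken 13–15 d after treatment in a greenhouse. Test material went straight into floodwater standing 3 cm above the soil, kept constant, on plants at the 2-leaf stage.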"}, "rice (Oryra sativa)": {"test_system": "rice (Oryra sativa)", "assay": "Test B flooded paddy test", "settings": "Flood, 250 g ai/ha; 0 to 100 scale where 0 is no effect and 100 is complete control; 13 to 15 d", "method_in_brief": "as §3"}, "[8]": {"test_system": "sedge, umbrella (small-flower umbrella sedge, Cyperus difformis)", "assay": "Test B flooded paddy test", "settings": "Flood, 250 g ai/ha; 0 to 100 scale where 0 is no effect and 100 is complete control; 13 to 15 d", "method_in_brief": "as §3"}, "[9]": {"test_system": "barnyardgrass (Echinochloa crus-galli)", "assay": "Test B flooded paddy test", "settings": "Flood, 250 g ai/ha; 0 to 100 scale where 0 is no effect and 100 is complete control; 13 to 15 d", "method_in_brief": "as §3"}, "[10]": {"test_system": "Galium (catchweed bedstraw, Galium aparine)", "assay": "Test A postemergence", "excerpt": "as §1, §2"}, "[11]": {"test_system": "ryegrass, Italian (Italian ryegrass, Lolium multiflorum)", "assay": "Test A postemergence", "excerpt": "as §1, §2"}, "corn (Zea mays)": {"test_system": "corn (Zea mays)", "assay": "Test A postemergence", "excerpt": "as §1, §2"}, "[12]": {"test_system": "wheat (Triticum aestivum)", "assay": "Test A postemergence", "excerpt": "as §1, §2"}, "Kochia (Kochia scoparia) [13]": {"test_system": "Kochia (Kochia scoparia)", "assay": "Test A postemergence", "excerpt": "as §1, §2"}, "[14]": {"test_system": "barnyardgrass (Echinochloa crus-galli)", "assay": "Test A postemergence", "excerpt": "as §1, §2"}, "[15]": {"test_system": "giant foxtail (Setaria faberii)", "assay": "Test A postemergence", "excerpt": "as §1, §2"}, "[16]": {"test_system": "blackgrass (Alopecurus myosuroides)", "assay": "Test A postemergence", "excerpt": "as §1, §2"}, "[17]": {"test_system": "pigweed (Amaranthus retroflexus)", "assay": "Test A postemergence", "excerpt": "as §1, §2"}, "[18]": {"test_system": "ragweed (common ragweed, Ambrosia elatior)", "assay": "Test A postemergence", "excerpt": "as §1, §2"}, "[19]": {"settings": "125 g ai/ha, preemergence, visual rating after approx. 10 d, 0 to 100 scale where 0 is no effect and 100 is complete control"}, "[20]": {"settings": "500 g ai/ha, preemergence, 0 to 100 scale, 0 = no effect, 100 = complete control"}, "[21]": {"settings": "125 g ai/ha, Preemergence, visual injury after approximately 10 d, 0 to 100 scale where 0 is no effect and 100 is complete control"}, "[22]": {"settings": "125 g ai/ha, postemergence, visual injury after approximately 10 d, 0 to 100 scale (0 no effect, 100 complete control)"}, "[23]": {"settings": "500 g ai/ha, postemergence, visual injury, 0 to 100 scale (0 no effect, 100 complete control), approx. 10 d"}, "[24]": {"settings": "125 g ai/ha, postemergence, visual rating after approx. 10 d, 0 to 100 scale (0 no effect, 100 complete control)"}, "[25]": {"settings": "Preemergence, 500 g ai/ha, visual injury approx. 10 d"}, "[26]": {"settings": "125 g ai/ha, postemergence, visual injury rating on 0 to 100 scale (0 no effect, 100 complete control), approx. 10 d"}, "[27]": {"settings": "Postemergence, 500 g ai/ha, 0 to 100 scale where 0 is no effect and 100 is complete control"}}, "data": [{"smiles": "O=C1NCC(c2cccc(Br)c2)C1C(=O)Nc1ccc(F)cc1F", "note": "(racemic) [Compound 687]", "values": [{"measurement": "Plant response rating, Ryegrass, Italian", "setting": "[1]; [19]", "value": 0}, {"measurement": "Plant response rating, Ryegrass, Italian", "setting": "[1]; [20]", "value": 20}, {"measurement": "Plant response rating, Kochia", "setting": "Kochia (Kochia scoparia) [2]; [21]", "value": 0}, {"measurement": "Plant response rating, Kochia", "setting": "Kochia (Kochia scoparia) [2]; [20]", "value": 40}, {"measurement": "Plant response rating, Barnyardgrass", "setting": "[3]; [21]", "value": 90}, {"measurement": "Plant response rating, Barnyardgrass", "setting": "[3]; [20]", "value": 90}, {"measurement": "Plant response rating, Foxtail, Giant", "setting": "[4]; [21]", "value": 90}, {"measurement": "Plant response rating, Foxtail, Giant", "setting": "[4]; [20]", "value": 90}, {"measurement": "Plant response rating, Pigweed", "setting": "[5]; [19]", "value": 0}, {"measurement": "Plant response rating, Pigweed", "setting": "[5]; [20]", "value": 30}, {"measurement": "Plant response rating, Ragweed", "setting": "[6]; [19]", "value": 0}, {"measurement": "Plant response rating, Ragweed", "setting": "[6]; [20]", "value": 0}, {"measurement": "Plant response rating, Ducksalad", "setting": "[7]", "value": 80}, {"measurement": "Plant response rating, Rice", "setting": "rice (Oryra sativa)", "value": 0}, {"measurement": "Plant response rating, Sedge, Umbrella", "setting": "[8]", "value": 0}, {"measurement": "Plant response rating, Barnyardgrass", "setting": "[9]", "value": 35}, {"measurement": "Plant response rating, Galium", "setting": "[10]; [22]", "value": 0}, {"measurement": "Plant response rating, Galium", "setting": "[10]; [23]", "value": 20}, {"measurement": "Plant response rating, Ryegrass, Italian", "setting": "[11]; [22]", "value": 20}, {"measurement": "Plant response rating, Ryegrass, Italian", "setting": "[11]; [23]", "value": 40}, {"measurement": "Plant response rating, Corn", "setting": "corn (Zea mays); [22]", "value": 0}, {"measurement": "Plant response rating, Corn", "setting": "corn (Zea mays); [23]", "value": 70}, {"measurement": "Plant response rating, Wheat", "setting": "[12]; [22]", "value": 0}, {"measurement": "Plant response rating, Wheat", "setting": "[12]; [23]", "value": 60}, {"measurement": "Plant response rating, Kochia", "setting": "Kochia (Kochia scoparia) [13]; [22]", "value": 0}, {"measurement": "Plant response rating, Kochia", "setting": "Kochia (Kochia scoparia) [13]; [23]", "value": 30}, {"measurement": "Plant response rating, Barnyardgrass", "setting": "[14]; [24]", "value": 90}, {"measurement": "Plant response rating, Barnyardgrass", "setting": "[14]; [23]", "value": 90}, {"measurement": "Plant response rating, Foxtail, Giant", "setting": "[15]; [22]", "value": 80}, {"measurement": "Plant response rating, Foxtail, Giant", "setting": "[15]; [23]", "value": 90}, {"measurement": "Plant response rating, Blackgrass", "setting": "[16]; [24]", "value": 30}, {"measurement": "Plant response rating, Blackgrass", "setting": "[16]; [23]", "value": 40}, {"measurement": "Plant response rating, Pigweed", "setting": "[17]; [22]", "value": 0}, {"measurement": "Plant response rating, Pigweed", "setting": "[17]; [23]", "value": 20}, {"measurement": "Plant response rating, Ragweed", "setting": "[18]; [22]", "value": 30}, {"measurement": "Plant response rating, Ragweed", "setting": "[18]; [23]", "value": 30}]}, {"smiles": "O=C1NCC(c2c(F)cccc2F)C1C(=O)Nc1cccc(F)c1F", "note": "(racemic) [Compound 516]", "values": [{"measurement": "Plant response rating, Ryegrass, Italian", "setting": "[1]; [21]", "value": 0}, {"measurement": "Ryegrass, Italian plant response rating (0 to 100 scale, 0 is no effect, 100 is complete control)", "setting": "[1]; [25]", "value": 0}, {"measurement": "Plant response rating, Kochia", "setting": "Kochia (Kochia scoparia) [2]; [21]", "value": 0}, {"measurement": "Kochia plant response rating (0 to 100 scale, 0 is no effect, 100 is complete control)", "setting": "Kochia (Kochia scoparia) [2]; [25]", "value": 0}, {"measurement": "Plant response rating, Barnyardgrass", "setting": "[3]; [21]", "value": 40}, {"measurement": "Barnyardgrass plant response rating (0 to 100 scale, 0 is no effect, 100 is complete control)", "setting": "[3]; [25]", "value": 80}, {"measurement": "Plant response rating, Foxtail, Giant", "setting": "[4]; [21]", "value": 70}, {"measurement": "Foxtail, Giant plant response rating (0 to 100 scale, 0 is no effect, 100 is complete control)", "setting": "[4]; [25]", "value": 90}, {"measurement": "Plant response rating, Pigweed", "setting": "[5]; [21]", "value": 0}, {"measurement": "Pigweed plant response rating (0 to 100 scale, 0 is no effect, 100 is complete control)", "setting": "[5]; [25]", "value": 0}, {"measurement": "Plant response rating, Ragweed", "setting": "[6]; [21]", "value": 0}, {"measurement": "Ragweed plant response rating (0 to 100 scale, 0 is no effect, 100 is complete control)", "setting": "[6]; [25]", "value": 0}, {"measurement": "Plant response rating, Ducksalad", "setting": "[7]", "value": 0}, {"measurement": "Plant response rating, Rice", "setting": "rice (Oryra sativa)", "value": 0}, {"measurement": "Plant response rating, Sedge, Umbrella", "setting": "[8]", "value": 0}, {"measurement": "Plant response rating, Barnyardgrass", "setting": "[9]", "value": 0}, {"measurement": "Galium plant response rating", "setting": "[10]; [26]", "value": 0}, {"measurement": "Plant response rating, Galium", "setting": "[10]; [27]", "value": 0}, {"measurement": "Ryegrass, Italian plant response rating", "setting": "[11]; [26]", "value": 0}, {"measurement": "Plant response rating, Ryegrass, Italian", "setting": "[11]; [27]", "value": 0}, {"measurement": "Corn plant response rating", "setting": "corn (Zea mays); [26]", "value": 0}, {"measurement": "Plant response rating, Corn", "setting": "corn (Zea mays); [27]", "value": 0}, {"measurement": "Wheat plant response rating", "setting": "[12]; [26]", "value": 0}, {"measurement": "Plant response rating, Wheat", "setting": "[12]; [27]", "value": 0}, {"measurement": "Kochia plant response rating", "setting": "Kochia (Kochia scoparia) [13]; [26]", "value": 0}, {"measurement": "Plant response rating, Kochia", "setting": "Kochia (Kochia scoparia) [13]; [27]", "value": 0}, {"measurement": "Barnyardgrass plant response rating", "setting": "[14]; [26]", "value": 0}, {"measurement": "Plant response rating, Barnyardgrass", "setting": "[14]; [27]", "value": 70}, {"measurement": "Foxtail, Giant plant response rating", "setting": "[15]; [26]", "value": 0}, {"measurement": "Plant response rating, Foxtail, Giant", "setting": "[15]; [27]", "value": 70}, {"measurement": "Blackgrass plant response rating", "setting": "[16]; [26]", "value": 0}, {"measurement": "Plant response rating, Blackgrass", "setting": "[16]; [27]", "value": 0}, {"measurement": "Pigweed plant response rating", "setting": "[17]; [26]", "value": 0}, {"measurement": "Plant response rating, Pigweed", "setting": "[17]; [27]", "value": 0}, {"measurement": "Ragweed plant response rating", "setting": "[18]; [26]", "value": 0}, {"measurement": "Plant response rating, Ragweed", "setting": "[18]; [27]", "value": 0}]}]}
